Test results from ChEMBL document CHEMBL5550160, “Leveraging a rationally designed veliparib-based anilide eliciting anti-leukemic effects for the design of pH-responsive polymer nanoformulation” (Eur J Med Chem, 2024).
Active and inactive are the calls of the source. The rule behind the calls is not given here.

What was measured:
[1] = target: T1, Histone deacetylase 3 (Homo sapiens, UniProt O15379); test: Inhibition of HDAC3 (unknown origin) using p53 residues 379 to 382 [RHKK(Ac)] as fluorogenic substrate assessed as residual activity at 4.12 x 10^-8M (reference value: 103.08%); conditions: dose 4.12 10^-8M
T1 sequence (O15379 whole entry, the tested form may be a part): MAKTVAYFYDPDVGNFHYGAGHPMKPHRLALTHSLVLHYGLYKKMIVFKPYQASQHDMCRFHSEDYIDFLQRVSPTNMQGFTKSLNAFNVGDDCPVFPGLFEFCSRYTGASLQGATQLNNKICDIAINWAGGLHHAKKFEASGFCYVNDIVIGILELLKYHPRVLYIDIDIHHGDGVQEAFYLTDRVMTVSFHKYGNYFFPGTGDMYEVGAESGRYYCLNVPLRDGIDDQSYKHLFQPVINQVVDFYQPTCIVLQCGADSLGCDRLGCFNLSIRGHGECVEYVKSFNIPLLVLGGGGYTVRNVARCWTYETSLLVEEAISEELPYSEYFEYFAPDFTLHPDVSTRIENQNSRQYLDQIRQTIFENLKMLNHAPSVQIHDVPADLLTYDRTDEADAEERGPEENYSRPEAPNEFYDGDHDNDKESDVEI

[2] = target: T2, Polyamine deacetylase HDAC10 (Homo sapiens) (UniProt Q969S8); test: Inhibition of HDAC10 (unknown origin) assessed as residual activity at 1.37 x 10^-8M (reference value: 101.54%); conditions: dose 1.37 10^-8M
T2 sequence (whole entry): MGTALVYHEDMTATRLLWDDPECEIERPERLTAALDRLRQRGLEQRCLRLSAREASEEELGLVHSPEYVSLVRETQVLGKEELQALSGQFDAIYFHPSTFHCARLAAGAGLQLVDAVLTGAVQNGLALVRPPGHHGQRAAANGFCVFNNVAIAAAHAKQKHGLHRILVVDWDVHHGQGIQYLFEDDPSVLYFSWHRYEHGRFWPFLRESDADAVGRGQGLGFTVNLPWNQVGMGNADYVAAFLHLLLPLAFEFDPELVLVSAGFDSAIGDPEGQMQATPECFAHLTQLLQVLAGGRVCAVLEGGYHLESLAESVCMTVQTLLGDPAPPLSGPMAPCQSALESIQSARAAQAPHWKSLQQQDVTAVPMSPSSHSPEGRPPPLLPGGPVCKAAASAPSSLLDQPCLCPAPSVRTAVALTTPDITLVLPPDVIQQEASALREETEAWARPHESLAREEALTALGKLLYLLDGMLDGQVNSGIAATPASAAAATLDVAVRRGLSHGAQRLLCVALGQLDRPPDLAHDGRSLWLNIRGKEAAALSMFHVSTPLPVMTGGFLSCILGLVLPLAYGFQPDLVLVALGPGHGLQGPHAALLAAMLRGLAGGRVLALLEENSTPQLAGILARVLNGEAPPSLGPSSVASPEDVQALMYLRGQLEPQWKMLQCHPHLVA

[3] = target: T1, Histone deacetylase 3; test: Inhibition of HDAC3 (unknown origin) using p53 residues 379 to 382 [RHKK(Ac)] as fluorogenic substrate assessed as residual activity at 3.70 x 10^-7M (reference value: 103.08%); conditions: dose 3.7 10^-7M
[4] = target: T1, Histone deacetylase 3; test: Inhibition of HDAC3 (unknown origin) using p53 residues 379 to 382 [RHKK(Ac)] as fluorogenic substrate assessed as residual activity at 5.08 x 10^-10M (reference value: 103.08%); conditions: dose 5.08 10^-10M
[5] = target: T2, Polyamine deacetylase HDAC10 (Homo sapiens); test: Inhibition of HDAC10 (unknown origin) assessed as residual activity at 3.70 x 10^-7M (reference value: 101.54%); conditions: dose 3.7 10^-7M
[6] = target: Histone deacetylase 5 (Homo sapiens) (UniProt Q9UQL6); test: Inhibition of HDAC5 (unknown origin) assessed as residual activity at 5.08 x 10^-10M (reference value: 100%); conditions: dose 5.08 10^-10M
Chain of Histone deacetylase 5 (Homo sapiens) (Q9UQL6 whole entry): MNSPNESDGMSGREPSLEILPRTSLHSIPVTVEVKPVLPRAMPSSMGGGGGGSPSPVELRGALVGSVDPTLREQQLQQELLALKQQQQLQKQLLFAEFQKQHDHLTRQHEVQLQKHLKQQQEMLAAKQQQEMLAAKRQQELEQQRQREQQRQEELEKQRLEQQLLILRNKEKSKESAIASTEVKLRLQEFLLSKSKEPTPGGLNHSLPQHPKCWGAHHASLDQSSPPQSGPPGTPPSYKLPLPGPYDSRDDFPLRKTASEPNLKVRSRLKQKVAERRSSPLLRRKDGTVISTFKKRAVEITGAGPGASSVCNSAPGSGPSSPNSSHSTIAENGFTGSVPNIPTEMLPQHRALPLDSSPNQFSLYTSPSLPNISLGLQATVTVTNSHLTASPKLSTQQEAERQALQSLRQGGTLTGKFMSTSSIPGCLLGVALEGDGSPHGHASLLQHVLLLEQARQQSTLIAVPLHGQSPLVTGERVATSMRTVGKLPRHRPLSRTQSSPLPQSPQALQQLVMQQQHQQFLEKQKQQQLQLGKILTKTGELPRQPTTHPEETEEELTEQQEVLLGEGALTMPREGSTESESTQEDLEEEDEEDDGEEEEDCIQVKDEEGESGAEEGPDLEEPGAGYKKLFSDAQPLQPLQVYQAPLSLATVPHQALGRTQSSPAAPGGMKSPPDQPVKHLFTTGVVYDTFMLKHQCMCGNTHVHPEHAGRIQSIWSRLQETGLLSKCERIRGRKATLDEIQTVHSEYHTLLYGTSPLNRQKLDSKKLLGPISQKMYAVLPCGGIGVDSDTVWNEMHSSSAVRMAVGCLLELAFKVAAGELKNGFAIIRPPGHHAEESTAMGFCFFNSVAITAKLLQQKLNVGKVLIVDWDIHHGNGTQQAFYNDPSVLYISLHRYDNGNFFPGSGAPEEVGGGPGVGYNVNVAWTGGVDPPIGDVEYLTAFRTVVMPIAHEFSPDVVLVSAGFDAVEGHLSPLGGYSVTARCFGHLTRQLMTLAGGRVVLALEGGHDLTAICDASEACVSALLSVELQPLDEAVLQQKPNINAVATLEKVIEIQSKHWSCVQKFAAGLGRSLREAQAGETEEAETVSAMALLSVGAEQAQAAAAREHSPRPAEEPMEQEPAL

[7] = target: Histone deacetylase 5 (Homo sapiens) (UniProt Q9UQL6); test: Inhibition of HDAC5 (unknown origin) assessed as residual activity at 4.12 x 10^-8M (reference value: 100%); conditions: dose 4.12 10^-8M
[8] = test system: HL-60; test: Induction of cell cycle arrest in human HL-60 cells assessed as accumulation of cells at sub-G1 phase at 0.5 to 1 times IC50 by PI staining based flow cytometry analysis; format: functional
[9] = target: Histone deacetylase 2 (Homo sapiens, UniProt Q92769); test: Inhibition of HDAC2 (unknown origin) assessed as residual activity at 1.1 x 10^-6M (reference value: 99.81%); conditions: dose 1.1 10^-6M
Chain of Histone deacetylase 2 (Q92769 whole entry): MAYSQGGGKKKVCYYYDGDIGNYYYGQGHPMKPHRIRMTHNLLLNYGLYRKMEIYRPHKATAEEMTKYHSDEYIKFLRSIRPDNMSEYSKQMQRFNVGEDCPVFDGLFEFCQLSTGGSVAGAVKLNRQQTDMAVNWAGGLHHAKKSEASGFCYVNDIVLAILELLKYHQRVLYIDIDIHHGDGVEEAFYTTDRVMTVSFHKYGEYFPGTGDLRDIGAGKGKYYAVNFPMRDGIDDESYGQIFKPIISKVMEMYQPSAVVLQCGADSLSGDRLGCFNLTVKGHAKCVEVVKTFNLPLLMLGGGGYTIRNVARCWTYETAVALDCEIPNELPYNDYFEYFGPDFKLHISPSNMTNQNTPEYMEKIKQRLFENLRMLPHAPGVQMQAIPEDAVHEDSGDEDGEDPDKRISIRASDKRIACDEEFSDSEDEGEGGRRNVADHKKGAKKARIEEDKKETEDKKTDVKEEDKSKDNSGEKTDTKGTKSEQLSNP

[10] = target: T3, Histone deacetylase 8 (Homo sapiens) (UniProt Q9BY41); test: Inhibition of HDAC8 (unknown origin) assessed as residual activity at 3.33 x 10^-6M (reference value: 100%); conditions: dose 3.33 10^-6M
T3 sequence (whole entry): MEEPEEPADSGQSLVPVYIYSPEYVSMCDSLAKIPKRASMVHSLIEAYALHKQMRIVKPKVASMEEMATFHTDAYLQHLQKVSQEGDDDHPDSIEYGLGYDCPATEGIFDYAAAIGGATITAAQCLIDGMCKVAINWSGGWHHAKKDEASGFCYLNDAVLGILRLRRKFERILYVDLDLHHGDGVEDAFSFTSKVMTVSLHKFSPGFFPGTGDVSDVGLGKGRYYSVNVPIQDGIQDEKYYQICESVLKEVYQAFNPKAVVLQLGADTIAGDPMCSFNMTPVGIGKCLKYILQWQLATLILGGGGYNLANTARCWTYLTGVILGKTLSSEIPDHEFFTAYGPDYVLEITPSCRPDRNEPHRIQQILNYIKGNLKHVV

[11] = target: T2, Polyamine deacetylase HDAC10 (Homo sapiens); test: Inhibition of HDAC10 (unknown origin) assessed as residual activity at 1.1 x 10^-6M (reference value: 101.54%); conditions: dose 1.1 10^-6M

Activity [1]: 91.1%
Activity [2]: 97.7%
Activity [3]: 54.9%
Activity [4]: 107%
Activity [5]: 94.8%
Activity [6]: 39%
Activity [7]: 93.1%
Activity [9]: 12.8%
Activity [10]: 96.9%
Activity [11]: 96.2%
SMILES: NC(=O)c1cccc2[nH]c(-c3ccc(NCc4ccc(C(=O)Nc5ccccc5N)cc4)cc3)nc12
Activity [8]: inactive
